{"source": "patent US20240189318A1", "about": "“THERAPEUTIC REGIMENS OF AN INHIBITOR OF THE ENZYMATIC ACTIVITY OF BRG1 AND BRM” (FOGHORN THERAPEUTICS INC., priority 2021, published 2024)", "key": {"[1]": {"test_system": "Uveal melanoma cell lines, 92-1 or MP41", "assay": "3-day growth inhibition, Compound A compared with clinical PKC and MEK inhibitors", "type": "cell-based"}, "[2]": {"test_system": "Uveal melanoma cell lines (92-1, MP41, MP38, MP46) and non-small cell lung cancer cells (NCIH1299)", "assay": "3-day growth inhibition, Compound B", "type": "cell-based", "conditions": "92-1, MP41, MP38, MP46, NCIH1299; 3 days, 0 to 10 μM"}, "[3]": {"test_system": "Uveal melanoma cell lines, 92-1 or MP41", "assay": "3-day growth inhibition, Compound B compared with clinical PKC and MEK inhibitors", "type": "cell-based"}, "CYP2C19": {"target": "CYP2C19 (Homo sapiens, UniProt P33261)", "sequence (P33261 whole entry)": "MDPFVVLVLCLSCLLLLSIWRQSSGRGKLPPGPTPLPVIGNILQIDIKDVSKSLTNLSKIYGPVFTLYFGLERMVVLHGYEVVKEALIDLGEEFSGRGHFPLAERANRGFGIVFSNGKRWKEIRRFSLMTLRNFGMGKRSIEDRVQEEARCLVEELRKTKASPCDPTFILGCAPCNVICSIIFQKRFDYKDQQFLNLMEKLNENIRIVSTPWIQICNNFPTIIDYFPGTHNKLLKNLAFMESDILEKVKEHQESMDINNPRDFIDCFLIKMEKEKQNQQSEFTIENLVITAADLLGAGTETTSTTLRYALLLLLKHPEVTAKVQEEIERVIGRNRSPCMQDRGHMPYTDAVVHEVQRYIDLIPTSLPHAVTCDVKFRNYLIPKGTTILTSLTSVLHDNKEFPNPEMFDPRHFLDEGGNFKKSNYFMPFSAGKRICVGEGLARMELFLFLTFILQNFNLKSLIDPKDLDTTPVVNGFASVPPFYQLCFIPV", "assay": "Selective chemical inhibition of compound of formula (I) depletion in human liver microsomes, CYP2C19", "type": "in vitro ADME", "design": "from tissue; host or cells: human liver microsomes", "conditions": "human, human liver microsomes, probe compound of formula (I) (depletion); Time-dependent inhibitor; targeted CYP 2C19; inhibitor 10 μM"}, "CYP1A2": {"target": "T1, CYP1A2 (Homo sapiens, UniProt P05177)", "T1 sequence (P05177 1-516)": "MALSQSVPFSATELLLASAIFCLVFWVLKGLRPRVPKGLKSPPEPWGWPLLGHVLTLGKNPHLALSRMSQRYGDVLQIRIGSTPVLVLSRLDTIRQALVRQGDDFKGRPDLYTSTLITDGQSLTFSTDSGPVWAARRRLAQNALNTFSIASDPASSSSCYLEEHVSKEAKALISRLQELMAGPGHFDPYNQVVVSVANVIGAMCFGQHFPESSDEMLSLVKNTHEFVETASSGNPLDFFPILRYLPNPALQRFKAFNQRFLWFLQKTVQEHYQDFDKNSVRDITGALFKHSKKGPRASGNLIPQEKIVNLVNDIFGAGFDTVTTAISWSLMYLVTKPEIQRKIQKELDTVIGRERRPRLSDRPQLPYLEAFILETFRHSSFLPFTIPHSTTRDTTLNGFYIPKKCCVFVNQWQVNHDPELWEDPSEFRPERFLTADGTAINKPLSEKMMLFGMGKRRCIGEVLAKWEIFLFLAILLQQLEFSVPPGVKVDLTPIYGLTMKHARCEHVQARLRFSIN", "assay": "in vitro"}, "2C8": {"target": "T2, 2C8 (Homo sapiens, UniProt P10632)", "T2 construct": "from tissue; host or cells: human liver microsomes", "T2 sequence (P10632 whole entry)": "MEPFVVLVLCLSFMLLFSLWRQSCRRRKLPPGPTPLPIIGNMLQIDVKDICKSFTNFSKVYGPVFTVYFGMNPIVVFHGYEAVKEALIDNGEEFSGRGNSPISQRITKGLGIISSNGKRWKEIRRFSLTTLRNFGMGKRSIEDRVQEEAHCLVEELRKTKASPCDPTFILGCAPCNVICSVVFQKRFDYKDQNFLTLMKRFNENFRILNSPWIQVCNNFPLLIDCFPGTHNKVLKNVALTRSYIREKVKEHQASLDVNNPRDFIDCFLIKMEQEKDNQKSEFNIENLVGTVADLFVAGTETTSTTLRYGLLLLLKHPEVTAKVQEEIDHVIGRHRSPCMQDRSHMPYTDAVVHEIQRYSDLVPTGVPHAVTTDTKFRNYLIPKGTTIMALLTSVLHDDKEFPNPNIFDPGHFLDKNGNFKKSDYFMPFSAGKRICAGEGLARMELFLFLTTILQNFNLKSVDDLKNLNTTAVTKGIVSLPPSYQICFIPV", "assay": "Selective chemical inhibition of compound of formula (I) depletion in human liver microsomes, CYP2C8", "type": "in vitro ADME", "conditions": "Time-dependent inhibitor; targeted CYP 2C8; inhibitor 100 μM"}, "CYP3A4/5": {"test_system": "CYP3A4/5", "assay": "Selective chemical inhibition of compound of formula (I) depletion in human liver microsomes, CYP3A4/5", "conditions": "human"}, "[4]": {"test_system": "parental MP41 cells and PKC inhibitor (PKCl)-resistant cells", "assay": "7-day growth inhibition assay, parental and PKC inhibitor-resistant cells", "type": "cell-based", "conditions": "7-day assay"}, "CYP2A6": {"target": "T3, CYP2A6 (Homo sapiens, UniProt P11509)", "T3 construct": "from tissue; host or cells: human liver microsomes", "T3 sequence (P11509 whole entry)": "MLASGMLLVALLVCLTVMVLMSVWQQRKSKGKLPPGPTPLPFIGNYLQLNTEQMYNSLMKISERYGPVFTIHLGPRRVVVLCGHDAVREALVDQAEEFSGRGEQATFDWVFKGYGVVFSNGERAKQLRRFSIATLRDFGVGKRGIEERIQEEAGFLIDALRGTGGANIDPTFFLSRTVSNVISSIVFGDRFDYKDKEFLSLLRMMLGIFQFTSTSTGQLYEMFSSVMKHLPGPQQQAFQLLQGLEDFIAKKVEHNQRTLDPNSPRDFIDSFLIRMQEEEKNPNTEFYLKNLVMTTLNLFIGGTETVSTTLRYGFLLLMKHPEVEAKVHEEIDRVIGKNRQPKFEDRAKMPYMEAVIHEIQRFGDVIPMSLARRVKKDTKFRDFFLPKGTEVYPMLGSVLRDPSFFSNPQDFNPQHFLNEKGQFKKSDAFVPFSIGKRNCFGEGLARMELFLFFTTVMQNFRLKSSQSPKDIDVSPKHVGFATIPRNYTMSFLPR", "assay": "Selective chemical inhibition of compound of formula (I) depletion in human liver microsomes, CYP2A6", "type": "in vitro ADME", "conditions": "probe compound of formula (I) (depletion), Direct inhibitor, targeted CYP 2A6, inhibitor 10 μM"}, "CYP1A2 enzyme activity": {"test_system": "CYP1A2 enzyme activity", "assay": "CYP enzyme activity in cultured human hepatocytes, CYP1A2", "type": "in vitro ADME", "conditions": "50 μM, range from three donors"}, "CYP1A2 mRNA": {"test_system": "CYP1A2 mRNA", "assay": "CYP mRNA level (qRT-PCR) in cultured human hepatocytes, CYP1A2", "conditions": "50 μM, range of fold change observed from three donors"}, "CYP2B6": {"target": "T4, CYP2B6 (Homo sapiens, UniProt P20813)", "T4 sequence (P20813 1-491)": "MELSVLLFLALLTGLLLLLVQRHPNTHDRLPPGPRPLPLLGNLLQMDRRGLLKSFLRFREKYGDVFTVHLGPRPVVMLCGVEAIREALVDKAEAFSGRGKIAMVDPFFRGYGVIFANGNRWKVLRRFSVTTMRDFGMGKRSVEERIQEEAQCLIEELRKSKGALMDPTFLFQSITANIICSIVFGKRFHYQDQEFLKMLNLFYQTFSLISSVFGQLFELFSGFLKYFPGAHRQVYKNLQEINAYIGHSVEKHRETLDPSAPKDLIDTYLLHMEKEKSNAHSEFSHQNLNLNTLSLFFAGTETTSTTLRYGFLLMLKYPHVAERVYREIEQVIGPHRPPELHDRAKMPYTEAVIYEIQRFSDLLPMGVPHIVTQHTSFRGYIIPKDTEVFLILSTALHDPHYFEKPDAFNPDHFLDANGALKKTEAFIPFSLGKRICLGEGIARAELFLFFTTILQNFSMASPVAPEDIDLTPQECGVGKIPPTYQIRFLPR", "assay": "Selective chemical inhibition of compound of formula (I) depletion in human liver microsomes, CYP2B6", "type": "in vitro ADME", "design": "from tissue; host or cells: human liver microsomes", "conditions": "probe compound of formula (I) (depletion), Time-dependent inhibitor, targeted CYP 2B6, inhibitor 30 μM"}, "CYP2B6 activity": {"test_system": "CYP2B6 activity", "assay": "CYP enzyme activity in cultured human hepatocytes, CYP2B6", "type": "in vitro ADME", "conditions": "1000 μM, range from three donors"}, "CYP2B6 mRNA": {"test_system": "CYP2B6 mRNA", "assay": "CYP mRNA level (qRT-PCR) in cultured human hepatocytes, CYP2B6", "conditions": "CYP2B6; 1000 μM; range from three donors"}, "2D6": {"target": "2D6 (Homo sapiens, UniProt P10635)", "sequence (P10635 whole entry)": "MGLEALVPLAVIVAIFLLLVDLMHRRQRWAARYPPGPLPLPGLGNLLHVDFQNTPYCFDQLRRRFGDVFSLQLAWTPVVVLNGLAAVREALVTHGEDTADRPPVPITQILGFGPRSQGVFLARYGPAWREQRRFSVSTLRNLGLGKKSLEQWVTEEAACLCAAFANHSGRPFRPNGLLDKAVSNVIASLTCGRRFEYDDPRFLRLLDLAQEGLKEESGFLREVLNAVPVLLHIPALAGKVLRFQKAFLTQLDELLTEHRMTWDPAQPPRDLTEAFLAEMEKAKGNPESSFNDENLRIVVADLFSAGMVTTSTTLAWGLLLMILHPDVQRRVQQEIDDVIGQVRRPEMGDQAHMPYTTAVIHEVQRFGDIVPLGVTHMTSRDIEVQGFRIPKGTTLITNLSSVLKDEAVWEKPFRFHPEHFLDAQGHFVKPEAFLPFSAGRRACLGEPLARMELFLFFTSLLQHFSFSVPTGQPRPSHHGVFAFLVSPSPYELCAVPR", "assay": "Selective chemical inhibition of compound of formula (I) depletion in human liver microsomes, CYP2D6", "conditions": "Direct inhibitor; targeted CYP 2D6; inhibitor 5 μM"}, "CYP2C19 mRNA": {"test_system": "CYP2C19 mRNA", "assay": "CYP mRNA level in cultured human hepatocytes, CYP2C19", "type": "in vitro ADME", "conditions": "CYP2C19; 20 μM; range from three donors"}, "CYP2C9": {"target": "CYP2C9 (Homo sapiens, UniProt P11712)", "sequence (P11712 whole entry)": "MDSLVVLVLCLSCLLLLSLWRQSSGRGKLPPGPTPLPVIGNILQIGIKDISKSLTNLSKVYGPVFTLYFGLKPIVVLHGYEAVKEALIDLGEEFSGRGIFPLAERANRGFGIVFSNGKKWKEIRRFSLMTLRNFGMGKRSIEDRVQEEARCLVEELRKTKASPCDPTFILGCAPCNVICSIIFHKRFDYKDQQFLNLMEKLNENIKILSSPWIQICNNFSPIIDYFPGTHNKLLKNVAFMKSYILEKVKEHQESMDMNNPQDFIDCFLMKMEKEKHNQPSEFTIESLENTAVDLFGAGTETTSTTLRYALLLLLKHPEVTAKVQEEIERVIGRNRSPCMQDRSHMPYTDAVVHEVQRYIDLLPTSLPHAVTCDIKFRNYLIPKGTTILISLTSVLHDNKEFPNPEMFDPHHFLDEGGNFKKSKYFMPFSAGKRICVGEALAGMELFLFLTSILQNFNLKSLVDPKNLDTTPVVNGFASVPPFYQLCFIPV", "assay": "in vitro"}}}
{"smiles": "CSCC[C@H](NC(=O)c1ccc(N)cc1)C(=O)Nc1nc(-c2cccc(-c3ccncc3)c2)cs1", "note": "[Compound A]", "values": [{"measurement": "onset of inhibition versus clinical PKC and MEK inhibitors", "setting": "[1]; 92-1 or MP41", "result": "faster onset of inhibition"}, {"measurement": "growth inhibition of uveal melanoma cells versus clinical PKC and MEK inhibitors", "setting": "[1]; 92-1 or MP41, 3 days, 0 to 10 μM, vs LXS196 and selumetinib", "result": "comparable growth inhibition"}]}
{"smiles": "CSCC[C@H](NC(=O)c1ccn(S(C)(=O)=O)c1)C(=O)Nc1nc(-c2cccc(-c3ccncc3)c2)cs1", "note": "[Compound B]", "values": [{"measurement": "growth inhibition in the cell lines", "setting": "[2]", "result": "potent growth inhibition"}, {"measurement": "onset of growth inhibition versus clinical PKC and MEK inhibitors", "setting": "[3]; 92-1 or MP41", "result": "faster onset of growth inhibition"}, {"measurement": "growth inhibition of uveal melanoma cells versus clinical PKC and MEK inhibitors", "setting": "[3]; 92-1 or MP41, 3 days, vs LXS196 and selumetinib", "result": "more potent effects on growth inhibition"}]}
{"smiles": "COc1ccc2nc([S@@+]([O-])Cc3ncc(C)c(OC)c3C)[nH]c2c1", "note": "[Esomeprazole, reference compound]", "values": [{"measurement": "inhibition at 10 µM", "setting": "CYP2C19", "result": 27.1, "unit": "%"}]}
{"smiles": "Cc1nc2c([nH]1)c(=O)n(C)c(=O)n2Cc1ccco1", "note": "[Furafylline]", "values": [{"measurement": "inhibition at 10 µM", "setting": "CYP1A2", "result": 1.9, "unit": "%"}]}
{"smiles": "Cc1ccc(C)c(OCCCC(C)(C)C(=O)O[C@@H]2O[C@H](C(=O)O)[C@@H](O)[C@H](O)[C@H]2O)c1", "note": "[Gemfibrozil glucuronide]", "values": [{"measurement": "% Inhibition of compound of formula (I) depletion in human liver microsomes", "setting": "2C8", "result": "No"}]}
{"smiles": "CC(=O)N1CCN(c2ccc(OCC3COC(Cn4ccnc4)(c4ccc(Cl)cc4Cl)O3)cc2)CC1", "note": "(stereo not shown) [Ketoconazole, reference compound]", "values": [{"measurement": "inhibition at 1 µM", "setting": "CYP3A4/5", "result": 83.3, "unit": "%"}]}
{"smiles": "CC1(N)CCN(c2cccnc2NC(=O)c2nc(-c3ncccc3C(F)(F)F)cnc2N)CC1", "note": "[LXS196]", "values": [{"measurement": "sensitivity of PKCl-resistant cells relative to parental MP41 cells", "setting": "[4]", "result": "could tolerate growth at higher concentrations"}]}
{"smiles": "N#Cc1ccc(C(c2ccc(C#N)cc2)n2cncn2)cc1", "note": "[Letrozole]", "values": [{"measurement": "inhibition at 10 µM", "setting": "CYP2A6", "result": 9.1, "unit": "%"}]}
{"smiles": "COc1ccc2[nH]c([S+]([O-])Cc3ncc(C)c(OC)c3C)nc2c1", "note": "(stereo not shown) [Omeprazole, reference compound]", "values": [{"measurement": "Positive Control Enzyme Activity Fold Change", "setting": "CYP1A2 enzyme activity", "result": "20.0-93.9"}, {"measurement": "Positive Control mRNA Fold Change", "setting": "CYP1A2 mRNA", "result": "50.2-118"}]}
{"smiles": "c1ccc(C2(N3CCCCC3)CCCCC2)cc1", "note": "[Phencyclidine]", "values": [{"measurement": "inhibition at 30 µM", "setting": "CYP2B6", "result": 5.7, "unit": "%"}]}
{"smiles": "CCC1(c2ccccc2)C(=O)NC(=O)NC1=O", "note": "[Phenobarbital, reference compound]", "values": [{"measurement": "Positive Control Enzyme Activity Fold Change", "setting": "CYP2B6 activity", "result": "11.9-16.7"}, {"measurement": "Positive Control mRNA Fold Change", "setting": "CYP2B6 mRNA", "result": "15.3-39.6"}]}
{"smiles": "C=C[C@H]1C[N@@]2CC[C@H]1C[C@@H]2[C@@H](O)c1ccnc2ccc(OC)cc12", "note": "[Quinidine]", "values": [{"measurement": "% Inhibition of compound of formula (I) depletion in human liver microsomes", "setting": "2D6", "result": "No"}]}
{"smiles": "CO[C@H]1/C=C/O[C@@]2(C)Oc3c(C)c(O)c4c(O)c(c(/C=N/N5CCN(C)CC5)c(O)c4c3C2=O)NC(=O)/C(C)=C\\C=C\\[C@H](C)[C@H](O)[C@@H](C)[C@@H](O)[C@@H](C)[C@H](OC(C)=O)[C@@H]1C", "note": "[Rifampin, reference compound]", "values": [{"measurement": "Positive Control mRNA Fold Change", "setting": "CYP2C19 mRNA", "result": "0.61-1.01"}]}
{"smiles": "O=C(O)COc1ccc(C(=O)c2cccs2)c(Cl)c1Cl", "note": "[Tienilic acid]", "values": [{"measurement": "inhibition at 20 µM", "setting": "CYP2C9", "result": 2.4, "unit": "%"}]}
